Reference: patent US9636323B2, “Method of treating cancer that overexpresses TopBP1” (Baylor College of Medicine, priority 2014, dated 2017)

Columns and labels:
[1] = tested on: p53 targets p21 and Bax in HCT116 cells; experiment: Induction of p21 and Bax in isogenic p53+/+ and p53−/− HCT116 cells; assay type: cell-based; details: p53+/+ versus p53−/− HCT116
mice = details: cited from earlier work
[2] = tested on: McA-RH7777 rat hepatoma cells; experiment: Apoptosis in rat tumor cells; assay type: cell-based
Protocol: (§1) The apoptosis was measured by Caspase-Glo® 3/7 assay (Promega) following the manufacturer's protocol. The cells were plated in 6-well tissue culture dish (10^4 cells/well) (BD Falcon) in respective media. […] The blank reactions were prepared per direction. Equal volume of Caspase-Glo® 3/7 reagents were applied to each well. A luminometer (Sirius) was used to quantitate luminescence.

[3] = tested on: E2F1 transcriptional activity; experiment: E2F1 activity reporter assay (p14Arf promoter dual luciferase) in HEK293 cells; assay type: cell-based, human
Protocol: E2F1 activity reporter assay using a p14^ARF promoter-luciferase plasmid was performed as described (Liu et al. 2003). p53 activity reporter assay was performed by a p21^Cip promoter-luciferase plasmid (Liu et al. 2009). p73 activity reporter assay was performed using a pGL3-Bax promoter-luciferase plasmid (Liu et al. 2011). pRL-TK (Renilla luciferase, Promega) was used in all experiments for controlling transfection efficiency. The firefly and Renilla luciferase activities were measured by Dual-Luciferase Reporter System (Promega), and the firefly luciferase activities were normalized against the Renilla activity. All assays were performed in triplicate.

[4] = tested on: mutp53(R249S)/p73 interaction; experiment: Anti-p73 immunoprecipitation in BT549 cells; assay type: cell-based, human; details: 2.5 μM, 5 h
Protocol: (§2) MDA-MB468 cells were lysed with TNN buffer (Liu et al. 2003). An aliquot of cell lysates was lysed with SDS lysis buffer and the rest of cell lysates were incubated with appropriate antibodies or beads at 4° C. for 3-12 h. Anti-FLAG beads (Sigma) were washed three times with TNN buffer. Immunoprecipitates were fractionated by SDS-PAGE and electro-transferred to Immobilon-P membrane (Millipore). Equal amount of protein loading was validated with Ponceau-S staining. The specific signals were detected by incubating with appropriate antibody. All primary antibodies were used at 1:1000 dilution and horseradish peroxidase (HRP)-conjugated secondary antibodies were used at 1:5000 dilution for immunoblotting. E2F1 (C-20 and KH-95), p53 (FL393), p63 (4A4 and H-129), p73 (H-79), p21 (C-19), Bax (N-20), GST (B-14), c-Myc (A14), Miz1 (H-190), Chk1 (G4), Actin (C-2) and GAPDH (6C5) antibodies were purchased from Santa Cruz. TopBP1 (mouse monoclonal) and Aid antibodies were purchased from BD Transduction Laboratories. TopBP1 (BL893, Rabbit polyclonal) antibody was purchased from Bethyl. Mouse monoclonal anti-phospho-γH2AX was purchased from Millipore. Phospho-Chk1 (Ser345) antibody was purchased from Cell signaling. FLAG (F7425) antibody was purchased from Sigma. Mouse monoclonal anti-p73 (IMG-246) was purchased from IMGENEX.

A549 = details: NCI-DTP database; cited from earlier work
MCF7 cells = experiment: MTS assay, MCF7; assay type: cell-based, human; details: increasing concentrations, 5 h, versus MCF10A
Protocol: (§3) Then 50 μl of MTS reagent (CellTiter 96® AQueous One Solution Cell Proliferation Assay, Promega) was added to each well, covered from light and incubated for 1 h at 37.0 incubator to develop purple color. The samples were measured at 490 nm in a plate reader (BioTek Synergy HT) against a blank 48-well plate. Each assay was done in triplicate.

MDA-MB468 xenografts = experiment: MDA-MB468 xenograft model; assay type: in vivo, nude mice
Protocol: Female nu/nu mice (4-5 weeks old) were purchased from Charles River Laboratories (Cambridge, Mass.). The animals were cared for and maintained by the Animal Care and Use Committee of Baylor College of Medicine. Freshly grown MDA-MB468 breast cancer cells [(8×10^6) cells per site in 100 μl phosphate-buffered saline (PBS)] were injected subcutaneously into the right side of the flank of the 5-6 weeks old mice. When tumors were measurable, the mice were randomly divided into treatment and control groups. […] The control group mice were injected with vehicle (DMSO) in the same way. The mice were monitored thrice per week. The weight of the mice and tumor size were measured on the indicated day with a caliper and calculated based on the formula π/6 (length×depth×width). The evaluator was blinded to the group allocation during monitoring. Animals were sacrificed in the indicated dates, and tumors were harvested, weighed, and further processed for histopathological analysis. All experiments were performed under a Baylor College of Medicine Institutional Animal Care and Use Committee (IACUC)-approved protocol and all experiments confirm to IACUC standards and ethical regulations.
Next day the samples were sent to The Pathology and Histology Core of Baylor College of Medicine for further processing. The paraffin-embedded sections were stained with H&E, Ki-67, TUNEL and anti-cleaved caspase-3 using standard operating protocols.

NCI-H460 = details: NCI-DTP database; cited from earlier work
[5] = tested on: TopBP1 checkpoint activation (Chk1); experiment: HU-induced Chk1 activation; assay type: cell-based
Protocol: as §2

MCF10A cells = experiment: MTS assay, MCF10A; assay type: cell-based, human; details: co-treated with doxorubicin, Calcein AM 2.5 μM, 5 h
Protocol: as §3

rats = details: cited from earlier work
Jurkat-T cells = experiment: Caspase 3/7 activation assay, Jurkat-T; assay type: cell-based; details: 2.5 μM, 7 hours
Protocol: as §1

NCI-H23 = details: NCI-DTP database; cited from earlier work
[6] = target: T1, TopBP1/mutp53(R273H) interaction (Homo sapiens, UniProt Q92547); experiment: Co-immunoprecipitation in MDA-MB468 cells, TopBP1/mutp53; assay type: cell-based; details: 2.5 μM, 5 h
T1 construct: endogenous in cells; host or cells: MDA-MB468
T1 sequence (Q92547 whole entry, stated change not applied): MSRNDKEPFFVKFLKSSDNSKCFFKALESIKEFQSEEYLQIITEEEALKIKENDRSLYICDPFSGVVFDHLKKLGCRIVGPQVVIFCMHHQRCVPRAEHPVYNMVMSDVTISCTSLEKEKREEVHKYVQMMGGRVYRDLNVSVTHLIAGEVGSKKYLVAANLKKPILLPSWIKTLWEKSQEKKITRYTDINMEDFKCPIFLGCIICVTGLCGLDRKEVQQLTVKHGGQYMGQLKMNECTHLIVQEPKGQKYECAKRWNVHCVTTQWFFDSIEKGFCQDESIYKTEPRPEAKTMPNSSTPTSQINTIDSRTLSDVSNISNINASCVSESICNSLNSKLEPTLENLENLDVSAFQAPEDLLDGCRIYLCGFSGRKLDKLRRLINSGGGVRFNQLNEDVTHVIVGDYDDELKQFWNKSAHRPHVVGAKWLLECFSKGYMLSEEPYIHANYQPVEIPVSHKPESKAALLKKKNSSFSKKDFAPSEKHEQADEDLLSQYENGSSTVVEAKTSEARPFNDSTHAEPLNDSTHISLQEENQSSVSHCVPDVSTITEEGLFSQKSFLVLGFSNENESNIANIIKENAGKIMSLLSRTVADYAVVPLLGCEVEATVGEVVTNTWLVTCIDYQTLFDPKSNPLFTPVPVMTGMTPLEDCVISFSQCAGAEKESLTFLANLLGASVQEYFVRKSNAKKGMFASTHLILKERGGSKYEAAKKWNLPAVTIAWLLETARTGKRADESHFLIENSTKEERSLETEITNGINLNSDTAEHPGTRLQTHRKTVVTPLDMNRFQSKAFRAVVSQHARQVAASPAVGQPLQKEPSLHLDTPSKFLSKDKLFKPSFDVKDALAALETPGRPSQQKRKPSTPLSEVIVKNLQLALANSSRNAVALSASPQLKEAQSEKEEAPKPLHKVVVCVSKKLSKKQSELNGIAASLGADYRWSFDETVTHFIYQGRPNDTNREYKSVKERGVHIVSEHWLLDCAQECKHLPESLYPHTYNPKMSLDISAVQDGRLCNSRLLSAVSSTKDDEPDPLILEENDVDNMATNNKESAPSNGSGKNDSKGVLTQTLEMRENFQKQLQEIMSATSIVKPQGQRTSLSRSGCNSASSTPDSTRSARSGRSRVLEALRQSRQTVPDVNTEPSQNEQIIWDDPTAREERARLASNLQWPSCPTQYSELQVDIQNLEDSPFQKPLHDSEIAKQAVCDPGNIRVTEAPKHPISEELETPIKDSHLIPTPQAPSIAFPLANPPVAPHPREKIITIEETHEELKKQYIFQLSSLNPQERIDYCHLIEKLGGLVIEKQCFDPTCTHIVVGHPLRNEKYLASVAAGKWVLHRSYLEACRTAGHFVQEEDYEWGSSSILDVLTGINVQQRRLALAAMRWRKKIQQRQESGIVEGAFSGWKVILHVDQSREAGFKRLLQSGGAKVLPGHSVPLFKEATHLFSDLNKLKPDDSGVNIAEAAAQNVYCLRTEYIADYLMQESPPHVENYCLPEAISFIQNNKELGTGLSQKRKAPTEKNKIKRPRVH
Protocol: as §2

[7] = tested on: mice (intestinal tissues); experiment: Tolerability and acute toxicity in proliferating tissues after i.p. injection; assay type: in vivo
[8] = 40 mg/kg i.p. every three days for three doses

For `CC(=O)OCOC(=O)CN(CC(=O)OCOC(C)=O)Cc1cc2c(cc1OC(C)=O)Oc1cc(OC(C)=O)c(CN(CC(=O)OCOC(C)=O)CC(=O)OCOC(C)=O)cc1C21OC(=O)c2ccccc21` [Calcein AM, Calcein AM (acetoxymethyl ester)], the “induction of p21 and Bax” value [1] is given as “observed on in p53^+/+, but not in p53^−/−”, the “oral LD50” value (mice; oral) is given as 17000 mg/kg and the “percutaneous LD50” value (mice; percutaneous) is given as 5000 mg/kg. The apoptosis [2] was “induced apoptosis”, the E2F1 transcriptional activity [3] was “enhanced” and the “binding of p73 to mutp53(R249S)” value [4] was “release of p73 from mutp53(R249S)”. The GI50 (A549) was under 1 µM, the “proliferation (MTS)” value (MCF7 cells) was “preferentially inhibited the proliferation” and the “body weights of mice” value (MDA-MB468 xenografts; [8]) was “without affecting body weights”. For the same compound, the “expression of proliferation marker Ki-67 in xenografts” value (MDA-MB468 xenografts; [8]) was “significantly inhibited”, the xenograft growth (MDA-MB468 xenografts; [8]) was “significantly inhibited xenograft growth” and the “immunohistochemistry of xenografts (Ki-67, TUNEL, cleaved caspase 3)” value (MDA-MB468 xenografts; one week after the second injection) was “inhibition of proliferation and induction of apoptosis”. For the same compound, the “tumor response to second round of treatment” value (MDA-MB468 xenografts; regrown tumors, second round from day 61) was “responded to Calcein AM injection again”, the GI50 (NCI-H460) was under 1 µM and the “HU-induced Chk1 activation” value [5] was “did not block HU-induced Chk1 activation”. For the same compound, the “doxorubicin sensitivity (MTS)” value (MCF10A cells) was “not”, the “oral LD50” value (rats) was 14500 mg/kg and the “cell killing (caspase 3/7 activation)” value (Jurkat-T cells) was “active in killing”. For the same compound, the GI50 (NCI-H23) was under 1 µM, the “TopBP1/mutp53 interaction at physiological levels” value [6] was “inhibited” and the “apparent toxicity in injected mice” value ([7]; 40 mg/kg) was “did not manifest any apparent toxicity”. The “Ki-67 staining in intestinal epithelium” value ([7]; 40 mg/kg, 48 h after injection) was “did not decrease Ki-67 staining”, the “apoptosis in intestinal epithelium” value ([7]; 40 mg/kg, 48 h after injection) was “nor did it induce apoptosis” and the “tolerability of i.p. injections” value ([7]; throughout the course of treatment) was “appeared to tolerate”.
